What was measured:
[1] = MDCK passive permeability; format: in vitro ADME, canine; conditions: dog, MDCK
[2] = Microsomal intrinsic clearance, human; format: in vitro ADME; conditions: for CLint scaled at 1 µM: pooled liver microsomes, human microsomes; for Pred CLhep (h): scaled predicted hepatic clearance, human
Protocol: SUPPLEMENTAL DMPK METHODS
All in vitro DMPK screening assays were performed at Q2 Solutions, Inc. (Indianapolis,
IN, USA). Microsomal Intrinsic Clearance: Test compounds (1 µM) were incubated
with 1 mg/mL of pooled liver microsomes in phosphate buffer at 37 °C. Samples were
taken at 0, 5, 10, 15, 30 and 45 min and analyzed by LC-MS. Testosterone was used as
the positive control. Two replicates were obtained and average CLint values are reported. […]

[3] = Brain homogenate binding; format: in vitro ADME; conditions: human brain homogenate; read-out: BHB %fu (h)
Protocol: both the protein side and buffer side of the membrane after incubation and the parent compound was quantified. Brain homogenate binding was performed similarly as above using human brain homogenate, equilibrium dialysis, and LC-MS/MS methods. Fraction unbound is calculated by dividing the concentration of the buffer side by the concentration of the matrix side (plasma or brain). […]

[4] = system: WIN-site dependent transcripts; assay: Bulk RNA-seq in L0 and DI318 CSCs; format: cell-based, human; conditions: for GSEA NES against MV4:11 C16-regulated gene set: 72 hours
Protocol: Bulk RNA-seq was performed at MedGenome Inc. using the Illumina Stranded mRNA Library Prep Kit and sequencing at 20M paired-end read-depth on a NovaSeq 6000 (PE100). The raw bulk RNA-seq paired end (R1-R2, 2 × 100 bp) sequencing fastq data was first subjected to the quality check analysis using FastQC (v0.11.9). […] Further, quality filtered reads were subjected to the alignment employing Rsubread (v2.16.1) align function with human genome reference build GRCh38 ([90], [91]). The mapped binary alignment map (BAM) files were indexed using samtools (v1.16.1) ([92]), and gene-wise read counts were summarized applying featureCounts function from Rsubread, where inbuilt hg38 annotation was used and duplicated reads were ignored. Furthermore, gene symbols were obtained using org.Hs.eg.db (v3.15.0) annotation package operating on ENTREZIDs from count table. Respectively, edgeR (v3.38.4) and limma-voom (v3.52.4) packages were employed to accomplish differential transcriptional regulation analysis ([93]–[95]). Briefly, constructed DGEList object (DGEList function), design matrix (model.design), and contrast matrix (makeContrasts) was defined, filtered low counts (filterByExpr), and trimmed mean of M-values (TMM) normalization (calcNormFactors) was done. Later, log2 counts per million reads (logCPM) transformation, model fitting and differential expression analysis was performed using limma-voom (voomWithQualityWeights, lmFit, contrasts.fit), empirical Bayes moderated t-statistics (eBayes), and TREAT method (treat, decideTests, topTreat) considering log fold-change (logFC) (0.5) threshold. Genes with |log2FC| > 0.5 and FDR adjusted P value cutoff (≤0.01) were considered as differentially expressed genes (DEGs). Gene ontology (GO) and pathway enrichment analysis was accomplished implementing ShinyGO (v0.77) ([96]). DEGs volcano plots were depicted utilizing EnhancedVolcano (v1.16.0) package.

[5] = target: T1, WDR5 (Homo sapiens, UniProt P61964); assay: WDR5 live cell CETSA in intact L0 CSCs (melting curve, isothermal Kd, washout); format: cell-based; set-up: we first used a cellular thermal shift (CETSA) assay in intact L0 CSCs; endogenous in cells; host or cells: L0 patient-derived GBM CSCs
Protocol: In total, 500,000 L0 CSCs, grown in suspension as spheroids, were split with Accutase and seeded in 1 mL of NBMc into each well of a 24-well dish. […] Cells were harvested by centrifugation (5 minutes, 500g) into SafeLock tubes (Eppendorf), washed once with 400 μL of PBS, and resuspended in 25 μL of CETSA Buffer (PBS + 1X Roche cOmplete Protease Inhibitor Cocktail + 3X Benzonase). […] One DMSO-treated sample was left unheated (representing 100% abundance i.e., fully bound) and 1 DMSO-treated sample was heated to 70°C (representing 0% abundance i.e., fully unbound). After heating, samples were lysed by 6X freeze-thaw cycles in LN2/hot water, rested for 10 minutes at room temperature, and then centrifuged for 30 minutes at > 14,000g at 4°C. 20 μL of the supernatant was transferred to a fresh tube into 5 μL of SDS-PAGE Loading Dye, boiled, and separated on 4%–20% Mini-PROTEAN Precast TGX Gels (Biorad). […] For CETSA washout experiments, a 10 cm dish with 6 × 10^6 to 8 × 10^6 L0 cells was treated for 2 hours with 5 μM compound or DMSO, washed 3 times with 15 mL of PBS (3 min, 400g), and split into 10 × 1 mL of fresh NBMc in a 24-well dish.

[6] = target: T1, WDR5; assay: WDR5 TR-FRET binding assay (displacement of labeled WIN-site peptide); set-up: human WDR5 residues Ser22-Cys334 were codon optimized for E. coli; made in house; host or cells: E. coli T7 Express lysY/Iq (New England Biolabs), pET27 plasmid
Protocol: Recombinant human WDR5 was cloned, expressed, and purified as previously described ([37]). Briefly, human WDR5 residues Ser22-Cys334 were codon optimized for E. coli and cloned into a pET27 plasmid downstream of a SUMO-protease cleavable NT-His6-SUMO fusion. […] Induced cultures were pelleted; resuspended in 1X PBS pH 7.4, 300 mM NaCl, 20 mM imidazole, 5 mM β-Me, and 10% glycerol; and lysed via sonication. […] His-SUMO-WDR5 used in the TR-FRET assay was further purified via size exclusion chromatography using 1X PBS pH 7.4, 300 mM NaCl, 5 mM β-Me running buffer, concentrated to 1–2 mg/mL, aliquoted, and froze at –80°C for storage. Tag free WDR5 used for crystallography was dialyzed overnight with SUMO protease and passed over an NiNTA column to remove the His6-SUMO tag. Tag free WDR5 was further purified via size exclusion chromatography using 20 mM HEPES pH 7.0, 250 mM NaCl, and 5 mM DTT; concentrated to 10 mg/mL; aliquoted; and frozen at –80°C for storage.
Inhibitor Ki values were measured using a previously published competitive TR-FRET assay ([37]). […] The reported Ki values were calculated from at least 3 biological replicates completed in technical quadruplicate.

[7] = Plasma protein binding (equilibrium dialysis), rat; format: in vitro ADME; conditions: read-out: PPB % fu (r)
Protocol: both the protein side and buffer side of the membrane after incubation and the parent
compound was quantified. […]

[8] = In situ brain perfusion; format: in vivo, mice; conditions: 2-minute perfusion, 10 μM
Protocol: To evaluate the permeability across the blood-brain barrier of WDR5 inhibitors in the absence of hepatic clearance, we utilized the in situ brain perfusion technique. Mice were anesthetized via i.p. injection of 100 mg/kg ketamine and 80 mg/kg xylazine. The peritoneal cavity was exposed, the descending aorta was clamped, and the right atrium was cut to prevent venous return to the heart. A 28G butterfly winged infusion catheter (Terumo Medical Care Solutions) was inserted into the left ventricle and mice were perfused with a modified physiological buffer containing 10 μM WDR5 inhibitor ([99]). […] To determine brain uptake of WDR5 inhibitors, mice were perfused for 120 seconds. The experiment was concluded by decapitation of the mouse. Following termination, the brain was rapidly removed and placed on ice. Inhibitor concentration in both brain and blood was determined by liquid chromatography tandem mass spectroscopy (Q2 Solutions). The unidirectional uptake transfer constant (Kin) was calculated by the following relationship ([100]):
Where Qbr is the concentration of WDR5 inhibitor in brain (ng/g) corrected for residual inhibitor remaining in cerebrovasculature at the end of the perfusion time frame, Cpf is the perfusion fluid concentration of WDR5 inhibitor (ng/mL), T is the time length of the perfusion experiment, and V0 is the vascular volume of the WDR5 inhibitor (mL/g).

time remaining bound to WDR5 after washout ([5]; L0 CSCs, 5 μM for 2 hours, then washout) | Kd ([5]; L0 CSCs, 2-hour pretreatment, isothermal 70°C) | Compound | Papp A→B [1] | Papp A→B ([1]; favorable permeability) | CLint scaled at 1 µM [2] | Pred CLhep (h) [2] | fraction unbound at […] [3] | C16 DEGs also downregulated by C3TD078 ([4]; DI318, 200 nM, 72 hours (118/150)) | C16 DEGs also downregulated by C3TD078 ([4]; L0, 200 nM, 72 hours (91/102)) | Ki [6] | fraction unbound at […] [7] | unidirectional brain uptake constant Kin [8] | GSEA NES against MV4:11 C16-regulated gene set ([4]; DI318, 200 nM) | GSEA NES against MV4:11 C16-regulated gene set ([4]; L0, 200 nM) | ΔTm at 10 µM ([5]; L0 cells, 10 μM, 2 hours)
at least 21 hours | 2 nM | COc1cc(Cn2nnc3c2CCc2c(-c4cn(C)nc4C(F)(F)F)cc(Cn4ccnc4C)cc2-3)cc(OC)c1 [C3TD078] | 4.9 ×10⁻⁶ cm/s | > 2 ×10⁻⁶ cm/s | 1200 mL/min/kg | 20.6 mL/min/kg | 0.004 | 79% | 89% | 0.03 ± 0.002 nM | – | – | – | – | –
– | – | COc1cc(Cn2nnc3c2CCc2c-3cc(Cn3ccnc3C)cc2C2CC2)ccc1F [C3TD343] | 5.2 ×10⁻⁶ cm/s | > 2 ×10⁻⁶ cm/s | 710 mL/min/kg | 20.3 mL/min/kg | 0.005 | – | – | 5.9 ± 0.3 nM | 0.027 | > 50 × 10^–4 mL/s/g | – | – | –
– | – | COc1cc(CN2CCc3c(cc(Cn4ccn(C)c4=N)cc3-c3ccc(F)cc3C)C2=O)cc(OC)c1 [C16, reference compound] | 0.1 ×10⁻⁶ cm/s | – | 155 mL/min/kg | 18.3 mL/min/kg | – | – | – | 0.03 ± 0.01 nM | 0.008 | < 5 × 10^–4 mL/s/g | –2.5 | –2.0 | 35 °C

Source: article PMC13313556, “Development and characterization of triazole-based WDR5 inhibitors for the treatment of glioblastoma” (JCI Insight, 2026)
